Measured values from US4632926A, “Quinazolinone derivatives which are active against coccidiosis” (priority 1982, dated 1986).
Entries after “also recorded” stand apart in the source; their conditions may differ.

Legend:
coccidia = conditions: cited from earlier work
Eimeria tenella = assay: Coccidiostatic activity in vivo against Eimeria tenella (lesions, % control of the infection); set-up: species or system Eimeria tenella (in Ranger pullets)
Protocol: (§1) Groups of 5 one-week-old Ranger pullets were infected each with a mixture of 5500 sporulated oocysts of Eimeria tenella and with 5000 sporulated oocysts of Eimeria acervulina.
(§2) The compound being tested was administered at the preselected dose in admixture with a poultry-feed (LD5) poor in vitamin K and containing no other additive.
(§3) The pullets were fed ad libitum with a fodder so prepared, beginning from 1 day prior to the infestation and going on for further 5 days.
(§4) As a check, there were used non-infested non-treated chickens and infested non-treated chickens.
(§5) The evaluation of the activity on Eimeria tenella was accomplished by ascertaining the presence of lesions, if any, 5 days after the infection, while the activity on Eimeria acervulina was evaluated by ascertaining the presence of oocysts, if if any, in the excrements 5 days after the infection.
(§6) The above compounds were tested for anticoccidial activity against E. tenella and E. acervulina according to the procedure hereabove described.
(§7) The activity against E. tenella was expressed as percent control of the infection at the considered dose, while the activity against E. acervulina was expressed on the basis of the presence, if any, of oocysts in the excrements and was rated as follows: […]

Eimeria acervulina = assay: Coccidiostatic activity in vivo against Eimeria acervulina (presence of oocysts in the excrements); set-up: species or system Eimeria acervulina (in Ranger pullets); key to E. acervulina (oocysts): A: absent; M: minimal present; P: present
Protocol: as §1, §2, §3, §4, §5, §6, §7

chickens [1] = assay: Toxicity phenomena in chickens fed with the compound in poultry-feed; format: in vivo
[2] = Toxicity towards poultry, LD50; conditions: chicken, in vivo
chickens [3] = conditions: poultry; cited from earlier work
poultry = conditions: background; cited from earlier work

For `O=C(C[C@H]1NCCC[C@@H]1O)Cn1cnc2cc(Br)c(Cl)cc2c1=O` (relative stereo) [trans-isomer], the “activity of trans-isomer compared with cis isomer” value (coccidia; trans versus cis isomer in the piperidine ring, Barringer et al. 1973) is given as “higher activity than the corresponding cis isomer”.

With `O=c1c2cc(Cl)c(Br)cc2ncn1CC(CC1NCCCC1O)=NO` (stereo not shown) [Compound A, reference compound] the “E. tenella (% control)” value (Eimeria tenella; 3.125 ppm in feed) was 0 % control, the “E. tenella (% control)” value (Eimeria tenella; 6.25 ppm in feed) was 0 % control and the “E. tenella (% control)” value (Eimeria tenella; 12.5 ppm in feed) was 40 % control. The “E. tenella (% control)” value (Eimeria tenella; 25 ppm in feed) was 100 % control, the “E. acervulina (oocysts)” value (Eimeria acervulina; 3.125 ppm in feed) was “P” and the “E. acervulina (oocysts)” value (Eimeria acervulina; 6.25 ppm in feed) was “P”. For the same compound, the “E. acervulina (oocysts)” value (Eimeria acervulina; 12.5 ppm in feed) was “P” and the “E. acervulina (oocysts)” value (Eimeria acervulina; 25 ppm in feed) was “M”.

For `NN=C(CC1NCCCC1O)Cn1cnc2cc(Br)c(Cl)cc2c1=O` (stereo not shown) [Compound No. 1, 6-chloro-7-bromo-3-[3-(3-hydroxy-2-piperidyl)-acetonyl]-(3H)-quinazolin-4-one hydrazone], the “E. tenella (% control)” value (Eimeria tenella; 3.125 ppm in feed) was 100 % control, the “E. tenella (% control)” value (Eimeria tenella; 6.25 ppm in feed) was 100 % control and the “E. tenella (% control)” value (Eimeria tenella; 12.5 ppm in feed) was 100 % control. The “E. tenella (% control)” value (Eimeria tenella; 25 ppm in feed) was 100 % control, the “E. acervulina (oocysts)” value (Eimeria acervulina; 3.125 ppm in feed) was “M” and the “E. acervulina (oocysts)” value (Eimeria acervulina; 6.25 ppm in feed) was “A”. The “E. acervulina (oocysts)” value (Eimeria acervulina; 12.5 ppm in feed) was “A” and the “E. acervulina (oocysts)” value (Eimeria acervulina; 25 ppm in feed) was “A”.

For `CCNN=C(CC1NCCCC1OC)Cn1cnc2cc(Br)c(Cl)cc2c1=O` (stereo not shown) [Compound No. 2, 6-chloro-7-bromo-3-[3-(3-methoxy-2-piperidyl)-acetonyl]-(3H)-quinazolin-4-one ethylhydrazone], the “E. tenella (% control)” value (Eimeria tenella; 6.25 ppm in feed) was 100 % control, the “E. tenella (% control)” value (Eimeria tenella; 12.5 ppm in feed) was 100 % control and the “E. tenella (% control)” value (Eimeria tenella; 25 ppm in feed) was 100 % control. For the same compound, the “activity against E. tenella, result in words” value (Eimeria tenella; dose of 12.5 ppm) was “full activity”, the “E. acervulina (oocysts)” value (Eimeria acervulina; 6.25 ppm in feed) was “P” and the “E. acervulina (oocysts)” value (Eimeria acervulina; 12.5 ppm in feed) was “A”. The “E. acervulina (oocysts)” value (Eimeria acervulina; 25 ppm in feed) was “A”, the “activity against E. acervulina, result in words” value (Eimeria acervulina; dose of 6.25 ppm) was “complete activity” and the “toxicity phenomena in chickens” value (chickens [1]; 100 ppm in poultry-feed along the duration of the activity test) was “No toxicity phenomena”. It also gave an LD50 [2] of about 100 mg/kg.

For `O=C(CC1NCCCC1O)Cn1cnc2cc(Br)c(Cl)cc2c1=O` (stereo not shown) [Halofuginone], the “toxicity phenomena in chickens” value (chickens [1]; about 38 ppm in the poultry-feed) is listed as “show phenomena of toxicity”, the anticoccidial activity (coccidia; background, poultry, even at very low doses (practical dose 3 ppm in feed)) is listed as “particularly active against coccidiosis in poultry; also recorded: high anticoccidial activity even at very low doses” and the LD50 (chickens [3]) is listed as 17.6 mg/Kg body weight. For the same compound, the toxicity for chickens (poultry) was “very toxic for chickens”.
